Experiments:
[1] = in vivo; cited from earlier work
[2] = test system: symptoms of drug-induced peripheral neuropathy in multiple myeloma patients on chemotherapy; experiment: Open labelled study of vitamin K2-7 on drug-induced peripheral neuropathy, symptoms scored by VAS; type: in vivo, human; conditions: for VAS Score: scale 0-10
Method: An open labelled study was conducted to evaluate the effect of vitamin K2-7 on drug-induced peripheral neuropathy. Patients who were diagnosed with multiple myeloma and are on chemotherapy treatment for the same, were assessed for the occurrence of symptoms of peripheral neuropathy and then selected. Patients were given 2 capsules of 100 mcg or 350 mcg of vitamin K2-7 along with the ongoing chemotherapy. The evaluation of symptoms of peripheral neuropathy (such as tingling, numbness, burning sensation, muscle cramps etc.) were assessed by VAS score (Schematic 1) from 0 to 10 (nil to unbearable). The scale has been used in various studies to measure the intensity and severity of various symptoms of neuropathy.
As the patients continued with the therapy, it was observed that the VAS score for all the symptoms decreased to between the range of “1” and “2”. This decrease has happened over a period of 2 to 5 months, depending upon the individual cases treated. […] The examples given in Table 1, summarises the data for 11 patients who were on vitamin K2-7 therapy for drug-induced peripheral neuropathy due to treatment for multiple myeloma. In Table 1, treatment administered refer to the cyclical chemotherapy provided to the patients of multiple myeloma (MM). These cycles are normally of 3 weeks or 21 days period, based on the attending physician's assessment of the patient's condition and tolerance.
However, vitamin K2-7 was administered daily as two […] capsules.
Treatment with vitamin K2-7 of subjects continued even after their having reached VAS score of “2”.
The gradation was judged by Physician based on following criteria. By using Visual Analog Scale, i.e. 0-10 point scale: 0=Absent; 1-3=Mild; 4-6=Moderate; 7-10=Severe.

[3] = natural forms, even at high doses; cited from earlier work

| Structure (SMILES) | half-life [1] | improvement in peripheral neuropathy ([2]; 1 of 11 patients who remained on 100 μg two times a day daily) | VAS Score ([2]; Patient 1, chemotherapy Bortezomib, Cyclophosphamide, Dexamethasone since June 2014, K2-7 from 16 Jun. 15 (350 μg), VAS before 8, scored 10 Dec. 15) | VAS Score ([2]; Patient 2, chemotherapy Lenalidomide, Dexamethasone since 2014, K2-7 from 25 Jun. 15 (350 μg), VAS before 8, scored 05 Nov. 15) | VAS Score ([2]; Patient 3, chemotherapy Lenalidomide, Dexamethasone, Zolendronic Acid since 2015, K2-7 from 19 Aug. 15 (100 μg), VAS before 8, scored 14 Mar. 16) | VAS Score ([2]; Patient 4, chemotherapy Bortezomib, Cyclophosphamide, Dexamethasone since 2015, K2-7 from 09 Jun. 16 (350 μg), VAS before 8, scored 22 Dec. 16) | VAS Score ([2]; Patient 5, chemotherapy Bortezomib, Cyclophosphamide, Dexamethasone since 2016, K2-7 from 23 Feb. 17 (350 μg), VAS before 9, scored 12 Aug. 17) | VAS Score ([2]; Patient 6, chemotherapy Rituximab, Cyclophosphamide, Doxorubicin, Vincristine, Prednisolone since November 2014, K2-7 from 22 May 17 (350 μg), VAS before 9, scored 04 Oct. 17) | VAS Score ([2]; Patient 7, chemotherapy Lenalidomide, Dexamethasone since 2010, K2-7 from 30 Jun. 17 (350 μg), VAS before 8, scored 27 Dec. 17) | VAS Score ([2]; Patient 8, chemotherapy Bortezomib, Cyclophosphamide, Dexamethasone since March 2017, K2-7 from 03 Nov. 17 (350 μg), VAS before 7, scored 03 Apr. 18) | VAS Score ([2]; Patient 9, chemotherapy Bortezomib, Cyclophosphamide, Dexamethasone since 2016, K2-7 from 20 Jul. 16 (350 μg), VAS before 9, scored 11 Jan. 17) | VAS Score ([2]; Patient 10, chemotherapy Lenalidomide, Dexamethasone since 2016, K2-7 from 10 Jun. 17 (350 μg), VAS before 8, scored 10 Jan. 18) | VAS Score ([2]; Patient 11, chemotherapy Dexamethasone since 2016, K2-7 from 25 Mar. 17 (350 μg), VAS before 9, scored 29 Sep. 17) | flare up of symptoms of drug-induced peripheral neuropathy ([2]; continuation of vitamin K2-7 during subsequent chemotherapy cycles) | adverse events during the vitamin K2-7 therapy ([2]; multiple myeloma patients on chemotherapy) | effect of continued treatment after reaching VAS score of 2 ([2]; treatment continued after VAS score of 2) | symptoms of toxicity [3] |
| --- | --- | --- | --- | --- | --- | --- | --- | --- | --- | --- | --- | --- | --- | --- | --- | --- | --- |
| CC1=C(C/C=C(\C)CCC[C@H](C)CCC[C@H](C)CCCC(C)C)C(=O)c2ccccc2C1=O [vitamin K1, phylloquinonc] | 1.5 h |  |  |  |  |  |  |  |  |  |  |  |  |  |  |  |  |
| CC(C)=CCC/C(C)=C/CC/C(C)=C/CC/C(C)=C/CC/C(C)=C/CC/C(C)=C/CC/C(C)=C/CC1=C(C)C(=O)c2ccccc2C1=O [Vitamin K2-7, vitamin K2-7] | more than 72 hours | significant improvement | 2 | 2 | 2 | 1 | 2 | 2 | 2 | 2 | 2 | 3 | 2 | prevented the flair up | no adverse events were noted | stabilised the VAS Score | have not produced symptoms of toxicity |

Source: patent US11628147B2, “Vitamin K2 compositions for the treatment of drug induced neuropathy” (priority 2017, dated 2023)
